Results published in patent publication US9592294B2, “Polyalkoxylated alcohols as excipients for pharmaceutical compositions” (Dow Global Technologies LLC, priority 2013, dated 2017).

Experiments:
[1] = Turbidity of wet-milled reference drug suspensions without excipient; format: physicochemical; conditions: 26 mg/L Probucol, assuming linear relationship between undissolved drug and turbidity
Protocol: Moreover, wet-milled drug suspensions were analyzed as reference samples to determine the turbidity of the drugs in the absence of excipients. […] 78.6 g of yttrium-stabilized zirconia grinding beads (YTZ from Tosoh Corp., diameter: 0.5 mm) were provided in a 50 mL plastic bottle and 10.0 g deionized water and 0.54 g of the respective drug were added. In the case of Probucol, a dispersant, Daxad 19LS (from Hampshire Chem. Corp.), was added in an amount corresponding to 1 wt. % of the mass of Probucol to counteract coating of the milling beads by the drug. The resulting mixture was placed on a rotating ball mill for 24 h. Subsequently 11.06 g of deionized water were added, the suspension was shaken extensively and then separated from the milling beads. An aliquot of 0.20 g of this suspension was further diluted with 49.80 g of deionized water to yield a suspension having a nominal drug concentration of 0.01 wt. %, which was then analyzed for its turbidity using a Nepheloskan Ascent instrument from ThermoLabsystem. […] Table 5 summarizes the measured turbidity of the wet milled reference drug suspensions along with the average particle size of the suspended drug particles measured using a 90 Plus Particle Size Analyzer instrument from Brookhaven Instruments Corp. and literature values for the aqueous solubility of the drugs.

[2] = phosphate buffer pH 7.0, terpene alcohol ethoxylates 20 wt. %, versus buffer alone; cited from earlier work

CC(C)(Sc1cc(C(C)(C)C)c(O)c(C(C)(C)C)c1)Sc1cc(C(C)(C)C)c(O)c(C(C)(C)C)c1 [Probucol]
Turbidity calculated for a Probucol suspension [1]: ~24 RNU

Nc1ccc(S(=O)(=O)Nc2nccs2)cc1 [sulfathiazole]
Increase of saturation drug concentration (factor) [2]: about 14
